In patent US10138245B2, “Fused triazole derivatives as phosphodiesterase 10A inhibitors” (Celon Pharma S.A., priority 2014, dated 2018) one finds half-life, microsomal CLint and IC50 data, which are given here for 15 compounds.

Data set [1] can be described thus: Metabolic stability in rat liver microsomal fraction. Format: in vitro ADME. The settings on record: liver microsomes, 37° C., phase I cofactors; for microsomal CLint: read-out: Cl(int). The procedure:
Tested compounds were incubated in triplicates with rat liver microsomal fraction at 37° C. in the presence of metabolic phase I cofactors (NADP, G6P, G6P dehydrogenase, MgCl2) necessary for metabolic transformations. Concentration of a non-metabolized tested compound in the reaction mixture was measured using LC/MS method at 4 time points: after 0, 20, 40 and 60 min of incubation. The AUC of compounds at those time points were compared with AUC at point 0 to obtain % loss of parental compound. The obtained data were used for calculation of internal clearance (Cl(int)) and half-life (T½). The metabolic activity of microsomes was assessed by measuring the stability of two standards with low and high metabolic stability, propranolol and donepezil, respectively.
Background: Liver microsomes are a subcellular fraction often used to study metabolism.

Data set [2] addresses Recombinant human phosphodiesterase 10A (PDE10A) (Homo sapiens (Human), UniProt Q9Y233). The experiment in a line: Assay of phosphodiesterase 10 inhibition in vitro (PDE-Glo luminescent method). Format: biochemical. The settings on record: averaged IC50 values, read-out: hPDE10A1 IC50. On the procedure:
1. Assay of Phosphodiesterase 10 Inhibition In Vitro
Recombinant human phosphodiesterase 10A (PDE10A) purified to homogeneity from Sf9 cells overexpressing PDE10A gene (GenBank/EMBL accession number: NM_001130690) was used for inhibition tests.
Inhibitory activity of the compounds towards PDE10A was tested using PDE-Glo (Promega Corporation, Madison, USA) luminescent method on 96-well plates. Test was performed for 8 concentrations of the compounds. Test compounds were dissolved in 100% DMSO and resulted solutions were diluted 5× in concentrated PDE-Glo Reaction Buffer. Eight concentrations of each tested compound were obtained by subsequent dilution. 5 μl of obtained solutions were added into the wells of 96-well plate. Next, 7.5 μl of a solution containing […] enzyme diluted in 1× concentrated PDE-Glo Reaction Buffer were added into the well to obtain the final amount of 2-10 ng (depending on the activity of the enzyme batch used in the study). In order to facilitate interaction between compounds and the enzyme, plates were incubated for 1 minute at room temperature and then 9 minutes at 4° C. Reaction was initiated by addition of 12.5 μl of 2 μM cAMP solution into the well and subsequently plate was incubated at 30° C.
After 40 minutes reaction was stopped by addition of 12.5 μl of PDE-Glo Termination Buffer with high concentration of a known PDE10 inhibitor. Plate content was stirred with orbital shaker at 500 RPMs for 10 minutes and then in the next step 12.5 μl of freshly prepared PDE-Glo Detection Solution were added into the well.
Plate was incubated for 20 minutes at room temperature before 50 μl of Kinase Glo reagent (Promega Corporation, Madison, USA) was applied into the wells and incubation at room temperature was continued for the next 10 minutes. After incubation, luminescence intensity in wells was measured with the Victor Light (Perkin Elmer Inc.) luminometer.
Percent of PDE10A inhibition by tested compounds was determined based on luminescence intensity measurements in wells containing test compounds and in control wells. Results were then fitted using a four-parameter logistic fit in GraphPad Prism 5.03 software (GraphPad Software Inc.). Negative control wells contained all above mentioned reagents except test compounds and positive control wells contained all above mentioned reagents except test compounds and the PDE10A enzyme. Each chemical compound was assayed in at least two independent runs (2×96-well plate in duplicate) with at least 3 wells of each of the controls.

Recombinant human phosphodiesterase 10A (PDE10A), sequence (Q9Y233 267-1055): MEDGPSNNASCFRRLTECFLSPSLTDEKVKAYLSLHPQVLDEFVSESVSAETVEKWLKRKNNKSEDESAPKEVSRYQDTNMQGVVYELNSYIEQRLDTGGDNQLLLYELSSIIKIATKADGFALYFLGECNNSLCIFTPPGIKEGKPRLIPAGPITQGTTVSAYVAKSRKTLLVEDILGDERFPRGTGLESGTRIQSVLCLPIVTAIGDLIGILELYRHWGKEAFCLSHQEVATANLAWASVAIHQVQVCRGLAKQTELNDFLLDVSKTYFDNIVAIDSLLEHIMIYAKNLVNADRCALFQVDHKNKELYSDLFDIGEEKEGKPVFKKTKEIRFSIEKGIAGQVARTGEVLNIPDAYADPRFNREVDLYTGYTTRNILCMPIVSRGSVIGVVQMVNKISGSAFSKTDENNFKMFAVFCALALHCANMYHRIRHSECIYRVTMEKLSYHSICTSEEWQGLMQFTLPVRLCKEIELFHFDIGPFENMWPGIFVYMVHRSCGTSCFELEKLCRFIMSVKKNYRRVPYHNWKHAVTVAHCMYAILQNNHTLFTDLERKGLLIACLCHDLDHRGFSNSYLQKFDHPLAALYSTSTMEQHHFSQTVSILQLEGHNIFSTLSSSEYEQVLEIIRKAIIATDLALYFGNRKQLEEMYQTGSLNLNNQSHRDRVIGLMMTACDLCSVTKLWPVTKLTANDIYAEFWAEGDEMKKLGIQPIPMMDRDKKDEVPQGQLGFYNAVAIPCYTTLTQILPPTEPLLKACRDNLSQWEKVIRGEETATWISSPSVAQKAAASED

As usually defined, the half-life is the time in which the quantity being followed falls by half. Read a high half-life as slow decline. Take `Cc1ncc(C)n2nc(-c3ccn4cc(-c5ccccc5)nc4c3)nc12` [Ex. 1 of WO2013003298, reference compound]: in data set [1], the half-life worked out at 0.559 h and the microsomal CLint is 68.9 µL/min/mg.

The IC50 is the midpoint of a concentration-inhibition curve. Take `Cc1cc(C)n2nc(-c3ccc4[nH]c(-c5ccccc5)nc4c3)nc2n1` [Example 1, 5,7-Dimethyl-2-(2-phenyl-1H-benzo[d]imidazol-5-yl)-[1,2,4]triazolo-[1,5-a]pyrimidine]: the IC50 in data set [2] came out at 47 nM.

`Cc1ncc(C)n2nc(-c3ccc4[nH]c(-c5ccccc5F)nc4c3)nc12` [Example 2, 2-[2-(2-Fluorophenyl)-1H-benzo[d]imidazol-5-yl]-5,8-dimethyl-[1,2,4]-triazolo[1,5-a]pyrazine]: the IC50 in data set [2] is 37 nM.

Consider `Cc1cc(C)n2nc(-c3ccc4[nH]c(-c5ccccn5)nc4c3)nc2n1` [Example 3, 5,7-Dimethyl-2-[2-(pyridin-2-yl)-1H-benzo[d]imidazol-5-yl]-[1,2,4]triazolo[1,5-a]pyrimidine], for which, in data set [2], the IC50 was found to be 279 nM.

Consider `Cc1ncc(C)n2nc(-c3ccc4[nH]c(-c5ccccc5)nc4c3)nc12` [Example 4, 5,8-Dimethyl-2-(2-phenyl-1H-benzimidazol-5-yl)[1,2,4]triazolo[1,5-a]pyrazine], for which, in data set [2], the IC50 came out at 27 nM. In addition, in data set [1], the half-life is 1.05 h and the microsomal CLint stood at 36.8 µL/min/mg.

For `Cc1cc(C)n2nc(-c3ccc4[nH]c(-c5ccncc5)nc4c3)nc2n1` [Example 5, 5,7-Dimethyl-2-[2-(pyridin-4-yl)-1H-benzimidazol-5-yl][1,2,4]triazolo[1,5-a]pyrimidine], in data set [2], the IC50 is 953 nM.

Regarding `Cc1ncc(C)n2nc(-c3ccc4[nH]c(-c5cccc(F)c5)nc4c3)nc12` [Example 6, 2-[2-(3-Fluorophenyl)-1H-benzimidazol-5-yl]-5,8-dimethyl[1,2,4]triazolo[1,5-a]pyrazine], the IC50 in data set [2] is 172 nM.

With `Cc1ncc(C)n2nc(-c3ccc4[nH]c(-c5ccc(F)cc5)nc4c3)nc12` [Example 7, 2-[2-(4-Fluorophenyl)-1H-benzimidazol-5-yl]-5,8-dimethyl[1,2,4]triazolo[1,5-a]pyrazine], the IC50 in data set [2] is 54 nM.

As for `Cc1ncc(C)n2nc(-c3ccc4[nH]c(-c5nccs5)nc4c3)nc12` [Example 8, 5,8-Dimethyl-2-[2-(1,3-thiazol-2-yl)-1H-benzimidazol-5-yl][1,2,4]triazolo[1,5-a]pyrazine], the IC50 in data set [2] amounted to 84 nM.

For the compound `Cc1ncc(C)n2nc(-c3ccc4[nH]c(-c5ccccn5)nc4c3)nc12` [Example 40, 5,8-Dimethyl-2-[2-(pyridin-2-yl)-1H-benzimidazol-5-yl][1,2,4]triazolo[1,5-a]pyrazine], the IC50 in data set [2] turned out to be 63 nM.

For the compound `COc1ccccc1-c1nc2cc(-c3nc4c(C)ncc(C)n4n3)ccc2[nH]1` [Example 41, 2-[2-(2-Methoxyphenyl)-1H-benzimidazol-5-yl]-5,8-dimethyl[1,2,4]triazolo[1,5-a]-pyrazine], the IC50 in data set [2] amounted to 19.5 nM.

With `Cc1cc(C)n2nc(-c3ccc4c(c3)nc(-c3ccccc3)n4C)nc2n1` [Example 48A, 5,7-Dimethyl-2-(1-methyl-2-phenyl-1H-benzo[d]imidazol-5-yl)-[1,2,4]-triazolo[1,5-a]pyrimidine], the IC50 in data set [2] was determined as 794 nM.

For `Cc1cc(C)n2nc(-c3ccc4nc(-c5ccccc5)n(C)c4c3)nc2n1` [Example 48B, 5,7-Dimethyl-2-(1-methyl-2-phenyl-1H-benzo[d]imidazol-6-yl)-[1,2,4]-triazolo[1,5-a]pyrimidine], the IC50 in data set [2] stood at 413 nM.

As for `Cc1cc(C)n2nc(-c3ccn4cc(-c5ccccc5)nc4n3)nc2n1` [Example 56, 5,7-Dimethyl-2-(2-phenylimidazo[1,2-a]pyrimidin-7-yl)[1,2,4]triazolo-[1,5-a]pyrimidine], in data set [2], the IC50 worked out at 96 nM.

Turning to `Cc1ncc(C)n2nc(-c3ccn4cc(-c5ccccc5)nc4n3)nc12` [Example 57, 5,8-Dimethyl-2-(2-phenylimidazo[1,2-a]pyrimidin-7-yl)[1,2,4]triazolo[1,5-a]pyrazine], the IC50 in data set [2] is 35.7 nM. Besides, in data set [1], the half-life was 1.1 h and the microsomal CLint was 34.9 µL/min/mg.
